ChEMBL document CHEMBL1201862, “PubChem BioAssay data set” (2004)
Active and inactive are the calls of the source.

Tests used:
Staphylococcus aureus = test: Inhibitors of Bacterial Quorum Sensing Structure Activity Relationship (SAR) Analysis: Dose Response Assay. [Related pubchem assays: 700, 527 ]; assay type: functional, organism-based
[1] = target: Lysosomal acid glucosylceramidase (Homo sapiens, UniProt P04062); test: Dose response cell-based high throughput screening assay to identify enhancers of beta-glucosidase activity. [Related pubchem assays: 784 ]; assay type: functional
[2] = target: Mothers against decapentaplegic homolog 3 (Homo sapiens, UniProt P84022); test: blockers of Smad3 complex formation in lysate – cell lysate, secondary confirmation, chemiluminescent ELISA, HEK293 lysate, dose response (AID 1058); assay type: functional
Chain of Mothers against decapentaplegic homolog 3 (P84022 whole entry): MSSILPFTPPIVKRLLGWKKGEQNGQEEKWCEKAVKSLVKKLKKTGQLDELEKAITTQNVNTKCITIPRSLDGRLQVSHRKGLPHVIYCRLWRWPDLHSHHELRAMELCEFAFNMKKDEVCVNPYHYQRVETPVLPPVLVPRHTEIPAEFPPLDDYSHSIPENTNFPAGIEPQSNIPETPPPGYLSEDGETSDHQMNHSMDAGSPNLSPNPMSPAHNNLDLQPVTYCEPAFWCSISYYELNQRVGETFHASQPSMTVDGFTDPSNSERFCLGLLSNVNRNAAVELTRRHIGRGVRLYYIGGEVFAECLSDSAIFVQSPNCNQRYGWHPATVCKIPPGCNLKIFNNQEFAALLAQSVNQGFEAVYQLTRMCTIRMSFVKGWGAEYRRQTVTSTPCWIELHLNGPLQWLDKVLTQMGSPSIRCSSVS

[3] = target: T1, Eukaryotic translation initiation factor 2-alpha kinase 3 (Homo sapiens, UniProt Q9NZJ5); test: Dose response cell-based high-throughput screening assay to measure PERK inhibition. [Related pubchem assays: 1416 ]; assay type: functional
T1 sequence (Q9NZJ5 whole entry): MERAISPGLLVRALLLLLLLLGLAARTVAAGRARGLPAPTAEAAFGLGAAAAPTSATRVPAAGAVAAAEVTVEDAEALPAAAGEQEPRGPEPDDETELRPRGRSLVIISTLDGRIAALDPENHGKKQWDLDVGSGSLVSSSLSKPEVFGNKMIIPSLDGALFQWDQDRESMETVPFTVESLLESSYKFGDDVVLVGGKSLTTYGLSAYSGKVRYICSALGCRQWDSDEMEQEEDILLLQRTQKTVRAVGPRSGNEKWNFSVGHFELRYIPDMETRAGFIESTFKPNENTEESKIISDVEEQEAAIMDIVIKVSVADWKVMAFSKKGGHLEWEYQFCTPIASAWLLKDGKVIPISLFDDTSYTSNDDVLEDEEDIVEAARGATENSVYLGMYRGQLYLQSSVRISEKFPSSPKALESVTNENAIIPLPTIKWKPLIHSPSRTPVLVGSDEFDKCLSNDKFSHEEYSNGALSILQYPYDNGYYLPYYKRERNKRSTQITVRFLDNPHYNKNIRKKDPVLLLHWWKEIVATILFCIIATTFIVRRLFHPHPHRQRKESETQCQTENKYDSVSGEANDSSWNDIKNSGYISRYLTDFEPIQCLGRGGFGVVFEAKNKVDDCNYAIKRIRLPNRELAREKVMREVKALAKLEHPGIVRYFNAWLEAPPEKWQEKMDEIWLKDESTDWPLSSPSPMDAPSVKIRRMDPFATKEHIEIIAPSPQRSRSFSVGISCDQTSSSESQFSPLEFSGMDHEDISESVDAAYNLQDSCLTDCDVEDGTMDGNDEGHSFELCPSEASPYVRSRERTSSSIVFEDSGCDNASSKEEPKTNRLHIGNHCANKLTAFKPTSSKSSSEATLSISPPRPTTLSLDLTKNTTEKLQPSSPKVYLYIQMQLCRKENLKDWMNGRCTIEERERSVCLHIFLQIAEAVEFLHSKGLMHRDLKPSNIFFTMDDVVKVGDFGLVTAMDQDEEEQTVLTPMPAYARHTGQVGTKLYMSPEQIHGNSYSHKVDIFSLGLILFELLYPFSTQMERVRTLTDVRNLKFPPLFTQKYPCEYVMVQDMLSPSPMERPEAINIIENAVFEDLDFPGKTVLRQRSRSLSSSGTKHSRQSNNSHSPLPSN

[4] = target: T1, Eukaryotic translation initiation factor 2-alpha kinase 3; test: Counterscreen assay for PERK inhibitors: Dose response cell-based high throughput screening assay to measure inhibition of PERK at 6 hours. [Related pubchem assays: 1522, 1416 ]; assay type: functional
[5] = target: Serine/threonine-protein phosphatase PP1-alpha catalytic subunit (Homo sapiens, UniProt P62136); test: inhibition of protein phosphatase 1 activity – biochemical, fluorescence, dose response (AID 2403);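 also: phosphatase turnover of OMFP into fluorescent 3-O-methylfluorescein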
Chain of Serine/threonine-protein phosphatase PP1-alpha catalytic subunit (P62136 whole entry): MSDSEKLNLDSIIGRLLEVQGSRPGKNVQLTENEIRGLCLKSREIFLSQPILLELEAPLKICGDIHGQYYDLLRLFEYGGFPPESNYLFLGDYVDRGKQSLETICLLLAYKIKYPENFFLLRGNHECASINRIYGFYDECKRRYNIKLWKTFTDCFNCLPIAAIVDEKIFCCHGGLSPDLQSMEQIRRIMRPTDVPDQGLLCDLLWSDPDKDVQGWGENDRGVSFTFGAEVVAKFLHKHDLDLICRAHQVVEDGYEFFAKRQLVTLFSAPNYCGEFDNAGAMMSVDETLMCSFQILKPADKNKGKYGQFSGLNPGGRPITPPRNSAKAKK

[6] = target: Serine/threonine-protein phosphatase (Homo sapiens, UniProt Q9BPW0); test: Counterscreen for inhibitors of PP1: fluorescence-based biochemical high throughput dose response assay to identify inhibitors of Protein Phosphatase 5 (PP5). [Related pubchem assays: 2034 (Summary (PP5 inhibitors)), 1987 (PP5 inhibitors in singlate), 2235 (PP1 inhibitors in singlate)]
Chain of Serine/threonine-protein phosphatase (Q9BPW0 whole entry): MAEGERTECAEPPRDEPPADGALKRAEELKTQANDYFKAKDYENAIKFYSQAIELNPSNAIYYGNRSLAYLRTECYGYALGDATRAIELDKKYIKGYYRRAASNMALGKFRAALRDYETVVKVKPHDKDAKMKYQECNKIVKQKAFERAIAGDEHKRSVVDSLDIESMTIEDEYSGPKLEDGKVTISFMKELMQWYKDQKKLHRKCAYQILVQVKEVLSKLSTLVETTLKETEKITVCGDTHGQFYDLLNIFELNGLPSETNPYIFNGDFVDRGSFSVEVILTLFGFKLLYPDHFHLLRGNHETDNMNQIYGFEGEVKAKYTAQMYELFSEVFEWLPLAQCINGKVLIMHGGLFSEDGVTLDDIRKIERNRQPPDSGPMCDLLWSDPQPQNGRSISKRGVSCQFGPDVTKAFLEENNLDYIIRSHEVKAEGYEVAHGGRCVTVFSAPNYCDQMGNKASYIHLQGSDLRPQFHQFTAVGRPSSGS

[7] = viability of PTEN-deleted HCT116 cells – cell-based, HCT116 PTEN knockout, dose response (AID 1047); assay type: functional;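 also: HCT116 colon tumor cells with PTEN knocked out; cells exposed to compound for 60 hours before readout; potency for loss of cell viability measured by luminescence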
[8] = viability of HCT116 lacking mutant beta-catenin – cell-based, human colon tumor, dose response (AID 1045); assay type: functional;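 also: HCT116 colon tumor cells with beta catenin knocked out; cells exposed to compound for 60 hours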
[9] = target: T2, Tyrosine-protein phosphatase non-receptor type 7 (Homo sapiens, UniProt P35236); assay type: functional
T2 sequence (P35236 whole entry): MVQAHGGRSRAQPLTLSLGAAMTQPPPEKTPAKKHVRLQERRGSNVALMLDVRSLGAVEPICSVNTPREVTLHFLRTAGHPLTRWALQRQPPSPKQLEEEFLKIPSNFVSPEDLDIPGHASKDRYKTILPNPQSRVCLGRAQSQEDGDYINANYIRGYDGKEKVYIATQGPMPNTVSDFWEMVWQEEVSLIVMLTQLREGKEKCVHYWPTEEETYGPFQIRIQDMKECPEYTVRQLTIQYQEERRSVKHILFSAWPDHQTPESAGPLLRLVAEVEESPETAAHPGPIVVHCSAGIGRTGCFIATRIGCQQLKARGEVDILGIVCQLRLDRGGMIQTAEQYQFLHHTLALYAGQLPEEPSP

[10] = target: Glyceraldehyde-3-phosphate dehydrogenase (Homo sapiens, UniProt P04406)
Chain of Glyceraldehyde-3-phosphate dehydrogenase (P04406 whole entry): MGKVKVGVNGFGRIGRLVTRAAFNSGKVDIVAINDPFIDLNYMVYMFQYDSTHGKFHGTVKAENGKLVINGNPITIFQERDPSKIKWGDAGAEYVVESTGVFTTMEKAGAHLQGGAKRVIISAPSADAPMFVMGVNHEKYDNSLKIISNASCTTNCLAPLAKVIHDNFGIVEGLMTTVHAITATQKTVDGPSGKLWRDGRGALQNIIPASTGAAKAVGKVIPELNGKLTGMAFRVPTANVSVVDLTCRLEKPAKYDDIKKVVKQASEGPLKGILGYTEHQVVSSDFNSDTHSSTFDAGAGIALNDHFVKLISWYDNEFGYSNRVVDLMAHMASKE

[11] = target: Heat shock cognate 71 kDa protein (Homo sapiens, UniProt P11142); test: In Vitro Hsc70 Dose Response Fluorescence Polarization Assay. [Related pubchem assays: 1072 ]
[12] = target: Heat shock 70 kDa protein 1A (Homo sapiens, UniProt P0DMV8); test: inhibition of Hsp70 binding activity – biochemical, fluorescence polarization, SAR follow-up (AID 1072)
Chain of Heat shock 70 kDa protein 1A (P0DMV8 whole entry): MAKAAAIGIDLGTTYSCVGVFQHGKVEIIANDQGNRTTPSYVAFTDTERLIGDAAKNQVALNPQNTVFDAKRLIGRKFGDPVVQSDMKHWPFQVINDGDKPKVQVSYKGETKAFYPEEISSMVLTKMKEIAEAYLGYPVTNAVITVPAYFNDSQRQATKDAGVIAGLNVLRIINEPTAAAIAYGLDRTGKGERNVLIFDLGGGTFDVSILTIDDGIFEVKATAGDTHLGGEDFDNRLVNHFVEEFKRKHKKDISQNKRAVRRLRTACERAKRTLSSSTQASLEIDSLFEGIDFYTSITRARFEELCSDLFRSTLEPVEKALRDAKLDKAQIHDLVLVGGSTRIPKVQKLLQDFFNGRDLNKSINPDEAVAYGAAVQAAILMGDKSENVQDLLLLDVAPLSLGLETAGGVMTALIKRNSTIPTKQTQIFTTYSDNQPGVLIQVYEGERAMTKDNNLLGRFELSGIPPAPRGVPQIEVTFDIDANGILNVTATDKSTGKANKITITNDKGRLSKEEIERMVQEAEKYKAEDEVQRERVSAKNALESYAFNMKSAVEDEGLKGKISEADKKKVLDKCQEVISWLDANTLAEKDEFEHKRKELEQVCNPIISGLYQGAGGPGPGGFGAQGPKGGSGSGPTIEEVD

[13] = target: T3, Dual specificity protein phosphatase 6 (Rattus norvegicus, UniProt Q64346)
T3 sequence (Q64346 whole entry): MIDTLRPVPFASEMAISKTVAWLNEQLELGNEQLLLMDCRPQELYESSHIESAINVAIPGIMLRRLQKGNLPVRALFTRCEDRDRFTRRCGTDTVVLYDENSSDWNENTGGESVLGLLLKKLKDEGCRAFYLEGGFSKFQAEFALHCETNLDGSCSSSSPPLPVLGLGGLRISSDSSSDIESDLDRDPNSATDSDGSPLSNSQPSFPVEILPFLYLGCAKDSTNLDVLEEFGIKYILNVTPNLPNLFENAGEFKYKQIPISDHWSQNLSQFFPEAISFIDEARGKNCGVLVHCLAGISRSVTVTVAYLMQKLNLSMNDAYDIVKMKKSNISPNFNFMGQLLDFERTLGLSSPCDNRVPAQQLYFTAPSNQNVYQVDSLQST

[14] = target: T3, Dual specificity protein phosphatase 6; assay type: functional
Estrogen receptor = target: T4, Estrogen receptor (Homo sapiens, UniProt P03372); test: blockers of SRC-3 recruitment to ERα – biochemical, ELISA, streptavidin-HRP readout, orthogonal assay, confirmation (AID 1079)
T4 sequence (P03372 whole entry): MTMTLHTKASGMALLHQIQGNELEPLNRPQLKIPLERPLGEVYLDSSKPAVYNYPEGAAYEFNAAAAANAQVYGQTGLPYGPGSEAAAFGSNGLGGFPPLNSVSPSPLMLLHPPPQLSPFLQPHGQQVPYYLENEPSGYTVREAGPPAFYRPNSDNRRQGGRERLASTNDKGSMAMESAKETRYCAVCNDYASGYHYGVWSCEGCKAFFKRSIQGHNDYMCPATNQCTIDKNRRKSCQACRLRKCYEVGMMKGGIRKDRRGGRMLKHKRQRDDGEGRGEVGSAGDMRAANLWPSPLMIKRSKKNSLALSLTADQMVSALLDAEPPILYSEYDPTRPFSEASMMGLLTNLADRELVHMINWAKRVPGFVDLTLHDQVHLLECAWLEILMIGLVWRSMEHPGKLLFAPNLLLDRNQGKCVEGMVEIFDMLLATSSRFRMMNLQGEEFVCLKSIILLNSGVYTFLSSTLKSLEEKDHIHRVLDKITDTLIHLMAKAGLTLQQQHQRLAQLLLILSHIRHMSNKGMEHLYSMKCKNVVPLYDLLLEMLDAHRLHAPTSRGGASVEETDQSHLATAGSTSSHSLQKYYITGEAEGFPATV

Cytochrome P450 2D6 = Cytochrome P450 2D6 (Homo sapiens, UniProt P10635); test: qHTS Assay for Inhibitors and Substrates of Cytochrome P450 2D6. [Related pubchem assays: 410 ]; assay type: ADME; settings: read-out: Potency
Chain of Cytochrome P450 2D6 (P10635 whole entry): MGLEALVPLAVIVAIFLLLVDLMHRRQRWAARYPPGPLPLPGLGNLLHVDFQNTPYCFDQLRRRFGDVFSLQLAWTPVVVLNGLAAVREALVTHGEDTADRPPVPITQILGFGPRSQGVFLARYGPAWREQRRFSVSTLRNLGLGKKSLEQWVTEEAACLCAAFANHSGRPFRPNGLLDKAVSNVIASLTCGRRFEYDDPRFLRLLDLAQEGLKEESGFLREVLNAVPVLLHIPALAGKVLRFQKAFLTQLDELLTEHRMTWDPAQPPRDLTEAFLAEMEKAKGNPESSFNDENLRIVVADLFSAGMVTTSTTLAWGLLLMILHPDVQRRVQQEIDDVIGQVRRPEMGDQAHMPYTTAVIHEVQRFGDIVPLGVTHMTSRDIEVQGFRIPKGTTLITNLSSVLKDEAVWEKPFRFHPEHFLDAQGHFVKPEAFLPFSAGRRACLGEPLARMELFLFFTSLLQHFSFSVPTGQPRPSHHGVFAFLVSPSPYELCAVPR

Cytochrome P450 2C9 = Cytochrome P450 2C9 (Homo sapiens, UniProt P11712); settings: Potency
Chain of Cytochrome P450 2C9 (P11712 whole entry): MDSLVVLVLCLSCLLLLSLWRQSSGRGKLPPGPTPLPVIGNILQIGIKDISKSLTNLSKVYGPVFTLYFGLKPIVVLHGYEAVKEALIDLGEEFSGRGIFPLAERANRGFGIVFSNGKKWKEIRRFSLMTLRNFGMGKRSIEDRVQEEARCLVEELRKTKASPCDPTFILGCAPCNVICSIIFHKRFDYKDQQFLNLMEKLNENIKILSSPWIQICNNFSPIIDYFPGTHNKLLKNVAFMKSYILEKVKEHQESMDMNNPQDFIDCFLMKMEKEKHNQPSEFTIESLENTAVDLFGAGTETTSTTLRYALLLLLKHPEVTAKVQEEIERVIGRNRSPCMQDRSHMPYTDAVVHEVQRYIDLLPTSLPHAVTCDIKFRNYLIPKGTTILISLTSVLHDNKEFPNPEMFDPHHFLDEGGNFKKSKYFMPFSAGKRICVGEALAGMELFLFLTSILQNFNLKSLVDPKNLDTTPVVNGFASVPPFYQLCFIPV

Streptococcus = test: Luminescence Microorganism-Based Dose Response Follow up to Identify Compounds Cytotoxic to Streptococcus. [Related pubchem assays: 1677 (Project Summary), 1915, 1914, 1902 (Retest at Dose), 1900 (Counter Screen), 1662 (Primary HTS)]; assay type: functional, organism-based
[15] = NIH-3T3 fibroblast cytotoxicity, dose response, cytotoxicity control, cell-based, fluorescence, Alamar Blue, secondary assay (AID 2327); assay type: functional;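 also: NIH-3T3 mouse fibroblasts cultured with fluconazole at 8 µg/mL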
cells [16] = assay type: functional, cell-based
[17] = fluconazole-exposed Candida albicans growth modulators – fluorescence, retest, confirmation (AID 2467); assay type: functional, cell-based
[18] = CCR5-tropic HIV-1 fusion blockers – cell-based, CCR5-tropic Env, dose response (AID 2279); assay type: functional
[19] = microbe, parasite or virus in culture; assay type: functional; settings: Mycobacterium tuberculosis
cells [20] = assay type: functional, cell-based; remark: listed apart in the source
[21] = target: T5, Short transient receptor potential channel 4 (Mus musculus, UniProt Q9QUQ5); test: block of DAMGO-driven TRPC4 calcium entry – cell-based, HEK293 TRPC4/mu-opioid, Fluo-4 calcium, dose response (AID 434942); assay type: functional;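 also: potency of inhibitors blocking the TRPC4 calcium response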
T5 sequence (Q9QUQ5 whole entry): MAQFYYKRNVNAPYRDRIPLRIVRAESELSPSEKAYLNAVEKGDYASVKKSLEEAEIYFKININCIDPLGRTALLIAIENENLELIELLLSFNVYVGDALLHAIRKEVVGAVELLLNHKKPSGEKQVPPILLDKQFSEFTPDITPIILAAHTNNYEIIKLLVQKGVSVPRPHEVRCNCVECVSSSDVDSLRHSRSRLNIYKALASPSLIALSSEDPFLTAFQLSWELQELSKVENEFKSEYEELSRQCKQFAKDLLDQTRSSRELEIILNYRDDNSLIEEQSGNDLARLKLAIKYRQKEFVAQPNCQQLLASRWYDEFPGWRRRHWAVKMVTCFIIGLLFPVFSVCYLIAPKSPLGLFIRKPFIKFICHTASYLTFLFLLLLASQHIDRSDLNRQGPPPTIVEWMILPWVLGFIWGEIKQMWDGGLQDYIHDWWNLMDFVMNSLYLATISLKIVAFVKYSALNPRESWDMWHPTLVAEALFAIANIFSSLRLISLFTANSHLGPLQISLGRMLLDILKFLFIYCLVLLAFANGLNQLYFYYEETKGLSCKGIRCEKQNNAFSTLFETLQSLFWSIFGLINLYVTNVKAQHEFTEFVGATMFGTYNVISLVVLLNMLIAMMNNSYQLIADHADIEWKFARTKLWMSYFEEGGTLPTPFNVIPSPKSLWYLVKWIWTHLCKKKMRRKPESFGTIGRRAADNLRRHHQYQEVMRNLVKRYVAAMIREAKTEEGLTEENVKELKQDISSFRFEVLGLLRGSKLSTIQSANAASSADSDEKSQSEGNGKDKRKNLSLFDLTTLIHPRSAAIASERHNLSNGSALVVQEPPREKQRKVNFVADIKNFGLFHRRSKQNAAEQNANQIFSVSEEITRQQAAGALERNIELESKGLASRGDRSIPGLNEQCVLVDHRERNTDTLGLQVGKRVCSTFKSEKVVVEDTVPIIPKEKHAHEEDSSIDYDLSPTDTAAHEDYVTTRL

Nonstructural protein 1 = Nonstructural protein 1 (Influenza A virus, UniProt Q194T2); assay type: functional, Influenza A virus (A/California/07/2009(H1N1))
Chain of Nonstructural protein 1 (Q194T2 whole entry): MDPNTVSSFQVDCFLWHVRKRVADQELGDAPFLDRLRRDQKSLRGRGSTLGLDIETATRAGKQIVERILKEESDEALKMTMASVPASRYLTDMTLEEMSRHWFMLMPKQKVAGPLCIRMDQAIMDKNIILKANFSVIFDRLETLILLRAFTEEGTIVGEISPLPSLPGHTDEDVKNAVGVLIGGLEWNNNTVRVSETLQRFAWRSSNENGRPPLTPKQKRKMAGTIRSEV

INS1 = test: INS-1E survival protection against cytokine death – cell-based, luminescence, retest, dose response (AID 449756); assay type: functional; settings: Rattus norvegicus;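 also: cell death triggered by IL-1 beta plus TNF-alpha plus IFN-gamma mixture; protective hits raise ATP signal compared with cytokine alone wells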
[22] = target: T6, Photoreceptor-specific nuclear receptor (Homo sapiens, UniProt Q9Y5X4); assay type: functional, cell-based
T6 sequence (Q9Y5X4 whole entry): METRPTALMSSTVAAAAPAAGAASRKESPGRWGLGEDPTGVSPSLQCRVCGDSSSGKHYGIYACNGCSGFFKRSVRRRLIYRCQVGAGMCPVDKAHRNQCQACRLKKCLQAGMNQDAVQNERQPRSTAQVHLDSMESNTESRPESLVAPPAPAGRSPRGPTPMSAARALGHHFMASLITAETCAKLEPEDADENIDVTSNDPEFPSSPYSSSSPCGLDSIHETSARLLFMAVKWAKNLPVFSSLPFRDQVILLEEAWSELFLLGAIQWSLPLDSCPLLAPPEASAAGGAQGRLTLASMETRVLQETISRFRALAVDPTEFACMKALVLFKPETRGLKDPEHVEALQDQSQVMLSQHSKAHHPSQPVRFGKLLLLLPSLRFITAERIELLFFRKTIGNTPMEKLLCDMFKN

[23] = target: T7, Neuropeptides B/W receptor type 1 (Homo sapiens, UniProt P48145); test: Fluorescence-based dose response cell-based high throughput screening assay to identify antagonists of the G-protein coupled receptor 7 (GPR7). [Related pubchem assays: 1952 (Screening assay (GPR7 antagonists).), 1880 (Summary AID.)]; assay type: functional
T7 sequence (P48145 whole entry): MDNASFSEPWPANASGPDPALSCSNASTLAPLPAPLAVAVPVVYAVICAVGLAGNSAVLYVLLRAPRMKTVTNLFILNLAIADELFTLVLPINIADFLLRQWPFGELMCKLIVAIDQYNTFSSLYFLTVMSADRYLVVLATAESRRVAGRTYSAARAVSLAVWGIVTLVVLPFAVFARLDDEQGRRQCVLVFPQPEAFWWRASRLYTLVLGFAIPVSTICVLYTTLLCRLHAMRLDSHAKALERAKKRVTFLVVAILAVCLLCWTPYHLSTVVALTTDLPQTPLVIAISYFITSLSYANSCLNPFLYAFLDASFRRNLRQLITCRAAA

[24] = target: Melanin-concentrating hormone receptor 1 (Homo sapiens, UniProt Q99705); test: Fluorescence-based counterscreen for antagonists of the G-protein coupled receptor 7 (GPR7): cell-based high throughput dose response assay to identify antagonists of the melanin-concentrating hormone receptor 1 (MCHR1).; assay type: functional
[25] = target: T5, Short transient receptor potential channel 4; test: calcium entry via TRPC4 opening agents – cell-based, HEK293 TRPC4/mu-opioid, Fluo-4 calcium, dose response (AID 434937); assay type: functional
[26] = target: T6, Photoreceptor-specific nuclear receptor; assay type: functional
[27] = target: Peroxisome proliferator-activated receptor gamma/Nuclear receptor corepressor 2 (Homo sapiens, UniProt P37231+Q9Y618); assay type: functional

SMILES: COc1ccccc1N1CCN(C(CNC(=O)c2cccc(Cl)c2)c2cccnc2)CC1 (centres undefined)
- IC50 (Staphylococcus aureus): 0.457 µM (active)

SMILES: CC1=C(C(=O)Nc2cccnc2)C(c2ccncc2)n2nnnc2N1 (centres undefined)
- EC50 [1]: > 50 µM (not active)

SMILES: Oc1cc2c(cc1C(c1ccc3c(c1)OCO3)N1CCOCC1)OCO2 (centres undefined)
- IC50 [2]: > 40 µM (not active)

SMILES: Cn1nc(C(F)(F)F)c(-c2ccccc2)c1NC(=O)CCC(=O)O
- EC50 [3]: > 55.7 µM (not active)
- EC50 [4]: > 55.7 µM (not active)

SMILES: COc1ccc2c(Cl)c(C(=O)N/N=C/c3ccc4c(c3)OCO4)sc2c1
- IC50 [5]: 5.11 µM (active)
- IC50 [6]: > 67 µM (not active)
- EC50 [7]: 20.7 µM (active)
- EC50 [8]: 25.4 µM (active)

SMILES: O=C(O)C1Nc2ccc([N+](=O)[O-])cc2C2C=CCC12 (centres undefined)
- IC50 [9]: 7.58 µM (active)
- IC50 [10]: 97.4 µM (active)
- IC50 [11]: 48.4 µM (active)
- IC50 [12]: 6.06 µM (active)
- IC50 [13]: 52 µM (active)
- IC50 [14]: 47.5 µM (active)

SMILES: O=C(CCCCCn1c(=S)[nH]c2ccccc2c1=O)N1CCN(c2ccc(C(F)(F)F)cc2)CC1
- IC50 (Estrogen receptor): 42.8 µM (not active)

SMILES: CN(C)c1ccc(C(=C2C=CC(=[N+](C)C)C=C2)c2c(O)c(S(=O)(=O)[O-])cc3cc(S(=O)(=O)O)ccc23)cc1
- AC50 (Cytochrome P450 2D6): 3.16 µM (inconclusive)
- AC50 (Cytochrome P450 2C9): 2.51 µM (inconclusive)

SMILES: O=C(CSc1ccncc1)N1c2ccccc2Sc2ccccc21
- EC50 (Streptococcus): > 500 µM (not active)

SMILES: Brc1ccc(N/N=C(/N=Nc2nn[nH]n2)c2ccccc2)cc1
- EC50 [15]: 2.55 µM (inconclusive)
- EC50 (cells [16]): 86.5 µM (active)
- EC50 [17]: > 38 µM (not active)
- IC50 [18]: 9.87 µM (active)
- CC50 [19]: 7.7 µM (active)
- EC50 (cells [20]): 47.2 µM (active)
- EC50 [21]: 7.5 µM (active)
- IC50 (Nonstructural protein 1): 6 µM (active)
- AC50 (INS1): 1.77 µM (active)
- IC50 [22]: 6.49 µM (active)

SMILES: CC(NCCC1(Cc2ccccc2Cl)CCOC(C)(C)C1)c1cccs1 (centres undefined)
- IC50 [23]: 12.7 µM (not active)
- IC50 [24]: 13.3 µM (not active)
- EC50 [25]: 5.31 µM (active)

SMILES: CCNC(=S)Nc1nc2c(cc1C(=O)OCC)CCCC2
- IC50 [26]: > 39.8 µM (not active)
- IC50 [27]: 32.7 µM (not active)
